# Data published in patent US20260199343A1 (Kadmon Corporation, LLC, priority 2022, published 2026).
# Where a name gives a salt, the structure may show the parent alone.
# Legend:
# [1] = cited from earlier work
# [2] = system: MM cell lines (LP1, MM1R, MM1S, OPM2); experiment: CellTiter-Glo cell viability, panel of MM cell lines; type: cell-based, human; conditions: 8 days treatment
# Protocol: Cell viability was measured by CellTiter-Glo, Luminescent Cell Viability Assay normalized with DMSO.
# C-myc protein = experiment: Western blot of C-Myc in LP1 cells; type: cell-based, human; conditions: 24 hours of treatment
# MOLP-8 = MOLP-8 viability, belumosudil vs Y27632 (Example 5); type: cell-based, human; conditions: 10-40 μM (belumosudil effect starting at 10 μM), after 4 days of treatment
# Protocol: MOLP-8 (DSMZ, #ACC569) were maintained in RPMI1640 complete medium (RPMI1640 supplemented with 20% FBS—Eurobio #CVFSVF06-01 and 1% L-glutamine—Gibco #25030-081), incubated at 37° C. with 5% CO2 before being used.
# (§1) Before treatment, MM cells were centrifuged for 5 minutes at 300 g, counted, and resuspended in RPMI1640 complete medium to have 50000 cells/100 μl.
# (§2) Compounds and cells were then added to the appropriate wells of a Corning™ 96-Well Clear Ultra Low Attachment Microplate (Corning, #7007) (final volume of each well: 200 μl). […] MOLP-8 or LP-1 or RPMI-8226 or HD NK cells (50000 cells/well) were then added to the appropriate wells. The plate was then centrifuged for 1 minute at 100 g before being placed into an incubator at 37° C. with 5% CO2 for up to 4 days.
# After treatment, cells were collected and added to U bottom plates for antibody labelling. […]
# (§3) To additionally assess cell viability, DAPI (Miltenyi Biotec, #130-111-570) was added in each well before plate reading by flow cytometry. Samples were then analyzed with the MACSQuant 16 flow cytometer (Miltenyi Biotec).
# (§4) Data were analyzed with FlowJo software as shown in FIG. 3: (FIG. 3A) MOLP-8 cells excluding debris was gated, followed by gating for single cells (FIG. 3B). From the single cells, viable DAPI^neg cells were quantified (FIG. 3C).
# RPMI-8226 = RPMI-8226 viability, belumosudil vs Y27632 (Example 5); type: cell-based, human; conditions: 10-40 μM (belumosudil effect starting at 10 μM), after 4 days of treatment
# Protocol: RPMI-8226 (ATCC, #CCL155) were maintained in RPMI1640 complete medium, incubated at 37° C. with 5% CO2 before being used.
# as §1, §2
# After treatment, cells were collected and added to U bottom plates for antibody labelling.
# Then, cells were centrifuged for 5 minutes at 300 g, the supernatant removed and 200 μl of AutoMACS Running buffer (Miltenyi Biotec, #130-091-221) added to each well. […]
# as §3, §4
# HD NK cells = experiment: HD NK cell viability, belumosudil vs Y27632 (Example 5); type: cell-based, human; conditions: 10-40 μM, after 4 days of treatment
# Description: (§5) Healthy donor buffy coats were supplied by EFS Ile de France. Immediately after reception, the qualified buffy coats were put under gentle agitation overnight at room temperature. The following day, peripheral blood mononuclear cells (PBMCs) were isolated by Ficoll (Cytiva #17-1440-02) density gradient centrifugation. Human NK cells were purified from PBMCs with the MACSXpress Whole Blood NK cell isolation kit from Miltenyi Biotec (#130-127-695) by negative selection using manual magnetic labelling and the MACSxpress separator (Miltenyi Biotec #130-098-308). Then, purified NK cells were cultured in RPMI1640 medium supplemented with 10% foetal bovine serum (FBS) (Eurobio #CVFSVF06-01) and 1% of L-Glutamine (Gibco #25030-081). The cells were left to rest overnight at 37° C. with 5% CO2 before being used. […]
# as §3, §4
# CD38 = conditions: bone marrow and MM cells of patients after first treatment; cited from earlier work
# MM1S cells = experiment: Growth inhibition of MM1S cells (CellTiterGlo / Incucyte confluency); type: cell-based, human; conditions: 5-6 days
# Protocol: (§6) On Day 1, the cells were plated at 3,000 cells per well (50 ul) using 384w plate (Costar, 3765) pre-coated with Poly-D-Lysine, spun down at 300 g for 1 min at room temperature and transferred in Incucyte S3 (37° C.; 5% CO2; every 2 h kinetic read). […] Cells were further incubated in Incucyte S3 (Sartorius) for an additional 5-6 days at 37° C., 5% CO2 with the same kinetic readings. At the end, proliferation was measured by added CellTiterGlo (Promega) to assess cell viability or by using Incucyte measuring cell confluency over time. Cell growth was normalized to DMSO (100%) and staurosporine (Sigma; […]) 1 uM (0%)).
# LP-1 cells = experiment: Growth inhibition of LP-1 cells (CellTiterGlo / Incucyte confluency); type: cell-based, human; conditions: LP1, 5-6 days
# Protocol: as §6
# [3] = cited from earlier work; remark: listed apart in the source
# [4] = HD NK cell viability by DAPI flow cytometry (Example 2); type: cell-based; conditions: human, healthy donor (HD) NK cells purified from PBMCs; high concentrations 25-40 μM, after 4 days of treatment; read-out: reduction of HD NK cells viability
# Description: as §5, with “fetal” for “foetal”, “#25030-081).” for “#25030-081). The cells were left to rest overnight at 37° C. with 5% CO2 before being used.”
# To additionally assess cell viability, DAPI (Miltenyi Biotec, #130-111-570) was added in each well before plate reading by flow cytometry. Samples were then analyzed with the MACSQuant 16 flow cytometer (Miltenyi Biotec). Data were analyzed with FlowJo software using the following strategy shown in FIGS. 3A-3D: (A) MOLP-8 cells excluding debris were gated, followed by gating for single cells (B), from single cells, viable DAPI^neg cells were quantified (C), and from DAPI^neg cells, the expression of CD38 was quantified with FITC fluorochrome (D) and expressed as median of fluorescence intensity (MFI).
compound,measurement,setting,value
"CC(C)NC(=O)COc1cccc(-c2nc(Nc3ccc4[nH]ncc4c3)c3ccccc3n2)c1 [Belumosudil mesylate, 2-{3-[4-(1H-indazol-5-ylamino)-2-quinazolinyl]phenoxy}-N-(propan-2-yl) acetamide methanesulfonate (1:1)]",solubility in water,[1],practically insoluble in water
"Nc1cccc2c1C(=O)N(C1CCC(=O)NC1=O)C2=O (racemic) [pomalidomide, (RS)-4-Amino-2-(2,6-dioxo-piperidin-3-yl)-isoindoline-1,3-dione]",growth inhibition of MM cell lines,[2],growth inhibition in all of these MM cell lines except LP1
same,C-myc protein level,C-myc protein,very moderate effect
same,solubility in all pH solutions,[1]; all pH solutions,about 0.01 mg/mL
same,solubility into organic solvents,[1]; organic solvents,limited to low solubility
C[C@@H](N)[C@H]1CC[C@H](C(=O)Nc2ccncc2)CC1 [Y27632],viability of MOLP-8 (number of cells and % of live cells),MOLP-8,does not impact viability
same,viability of RPMI-8226 (number of cells and % of live cells),RPMI-8226,does not impact viability
same,HD NK cell viability,HD NK cells,neither belumosudil nor Y27632 impact HD NK cell viability
daratumumab: anti-CD38 antibody,CD38 expression,CD38,reduced
"C[C@@H]1C[C@H]2[C@@H]3CCC4=CC(=O)C=C[C@]4(C)[C@@]3(F)[C@@H](O)C[C@]2(C)[C@@]1(O)C(=O)CO [Dexamethasone, 9-fluoro-11β,17,21-trihydroxy-16α-methylpregna-1,4-diene-3,20-dione]","growth inhibition, single agent",MM1S cells,single agent growth inhibition activity
same,"growth inhibition, single agent",LP-1 cells,single agent growth inhibition activity
same,solubility in water,[1],practically insoluble in water
same,stability in air,[3],stable in air
"CC(C)NC(=O)COc1cccc(-c2nc(Nc3ccc4[nH]ncc4c3)c3ccccc3n2)c1 [belumosudil, 2-{3-[4-(1H-indazol-5-ylamino)-2-quinazolinyl]phenoxy}-N-(propan-2-yl) acetamide]",IC50,"[2]; Homo sapiens, 192 h, LP1, MM1R, MM1S, OPM2, normalized with DMSO, read-out: IC50 of MM cell line growth inhibition",1 to 7 µM
same,cytotoxicity at 4 days,[4],≤ 10%
